{"source": "patent US10512656B2", "about": "“Compositions and methods for the treatment of lysosomal storage disorders and disorders characterized by lysosomal dysfunction” (Baylor College of Medicine, priority 2016, dated 2019)", "key": {"mTORC1": {"biological_target": "T1, mTORC1 (Mus musculus, UniProt Q9JLN9)", "T1 construct": "100 mM) for 24 h or left untreated; endogenous in cells; host or cells: wild-type and Tsc2-/- mouse embryonic fibroblasts", "assay": "Immunoblot of mTORC1 substrates in WT and Tsc2-/- MEFs", "type": "cell-based", "details": "Tsc2-/- and control MEFs, trehalose 100 mM 24 h", "protocol": "(b) Quantification of TFEB subcellular localization (C, cytoplasmic; N, nuclear) after 24 h of trehalose treatment (Tre) or in untreated cells (UT). Scale bars in a, b is 40 μm. (c) Immunoblot analyses show expression levels of substrates downstream of mTORC1. Wild-type (WT) and TSC2 null MEF cells were treated with trehalose (Tre; 100 mM) for 24 h or left untreated. As controls, cells were treated with Torin 1 (300 nM) or rapamycin (300 nM) for 2 h before extracting the lysates. Phospho- and total S6K1 (P-S6K1 and T-S6K1), phospho- and total S6 (P-S6 and T-S6) and phospho- and total 4E-BP1 (P-4E-BP1 and T-4E-BP1) were detected as readouts of mTORC1 activity. […]\n(§1) Brain tissue and cultured cells were collected and lysed in RIPA buffer (50 mM Tris-HCl, ph 7.4, 1% NP40, 0.5% Na-deoxycholate, 0.1% SDS, 150 mM NaCl, 2 mM EDTA and 50 mM NaF) including a cocktail of protease (Roche) and phosphatase (SIGMA) inhibitors. Protein concentrations were measured with the bicinchoninic acid protein assay kit (Pierce, Rockford, Ill.), using bovine serum albumin as standard. […] Western blot images were acquired by LAS 4000 (GE Healthcare) and quantified using ImageJ. […]"}, "TFEB S211": {"system": "TFEB S211", "assay": "TFEB S211 phosphorylation (Phospho(Ser)-14-3-3 binding motif immunoblot)", "type": "cell-based, human", "details": "HeLa cells transfected with TFEB-Flag, trehalose 24 h", "protocol": "FIG. 9. […] TFEB-Flag was immunoprecipitated from HeLa cells transfected with TFEB-Flag and treated with trehalose for 24 h or left untreated. Immunoblot analyses were performed using antibody against Phospho(Ser)-14-3-3 binding motif and control antibodies."}, "lysosomal genes": {"system": "lysosomal genes", "assay": "Microarray expression analysis (gene ontology, GSEA) of fibroblasts", "type": "cell-based, human", "protocol": "Total RNA from control and JNCL fibroblasts with and without trehalose treatment (100 mM, 4 days) was used to prepare complementary DNA for hybridization to the Illumina Human HT-12 V4.0 array platform. Experiments were performed in triplicate. Expression analysis was performed at the Microarray Core and Cell and Regulatory Biology, University of Texas, Houston, Tex., USA. A […] was used as a threshold for significance for assessing differential gene expression. GSEA was performed as previously described^10,11. The cumulative distribution function was constructed by performing 1,000 random gene set membership assignments. A nominal P<0.01 and an FDR<10% were used as thresholds for significance of the ES. Gene ontology analysis was performed with the web tool DAVID (https://david.ncifcrf.gov/) using default parameters. Pathway co-expression analyses were performed as previously described^8,9, and Cytoscape was used to represent graphically the expression correlation data."}, "GSK3β": {"biological_target": "T2, GSK3β (Homo sapiens, UniProt P49841)", "T2 construct": "endogenous in cells; host or cells: HeLa", "assay": "GSK3β immunoblot in HeLa cells", "type": "cell-based", "details": "trehalose 24 h", "from_the_text": "FIG. 16. […] GAPDH was used as a loading control. […] Images have been cropped for presentation."}, "Akt": {"system": "Akt", "assay": "Akt activity in HeLa cells, time course immunoblot", "type": "cell-based, human", "protocol": "FIG. 14. Akt phosphorylates TFEB at Ser467. […] Dashed boxes (upper row) show the location of the higher power inserts (lower row). (b) Subcellular fractionation of HeLa/TFEB cells incubated with the same kinase inhibitors. (c) Multi-alignment of TFEB amino-acid sequences from the following species: Ac, Anolis carolensis; Bt, Bos taurus; Dr, Danio rerio; Fc, Felix catus; Gg, gallus gallus; Hs, Homo sapiens; La, Loxodonta africana; Mm, Mus musculus; Rn, Rattus Norvegicus; Sh, Sarcophilus harrisii; Sp, Strongylocentrotus purpuratus; XI, Xenopus laevis. A consensus logo of Akt phosphorylation sites (generated at weblogo.berkeley.edu/logo.cgi) is aligned with TFEB sequences. Position 467 refers to the human protein sequence. (d) Subcellular localization of TFEB and TFEB(S467A). (e) Expression analysis of lysosomal and autophagy genes in HeLa cells transfected with TFEB or TFEB(S467A). […]\nas §1"}}, "data": [{"smiles": "OC[C@H]1O[C@H](O[C@H]2O[C@H](CO)[C@@H](O)[C@H](O)[C@H]2O)[C@H](O)[C@@H](O)[C@@H]1O", "note": "[trehalose, a-D-glucopyranosyl a-D-glucopyranoside]", "values": [{"measurement": "mTORC1 signalling", "setting": "mTORC1", "value": "does not alter mTORC1 signalling"}, {"measurement": "phosphorylation of TFEB S211", "setting": "TFEB S211", "value": "does not modify phosphorylation of TFEB S211"}, {"measurement": "GSEA enrichment score, TFEB direct targets with a known role in lysosomal metabolism", "setting": "lysosomal genes; control fibroblasts, P<0.0001", "value": 0.82}, {"measurement": "GSEA enrichment score, lysosomal genes", "setting": "lysosomal genes; control fibroblasts, P<0.0001", "value": 0.67}, {"measurement": "gene ontology fold enrichment of lysosomal metabolism genes", "setting": "lysosomal genes; genes with at least twofold change, JNCL and control fibroblasts, trehalose 100 mM 4 days", "value": "> 5"}, {"measurement": "GSK3β activity", "setting": "GSK3β", "value": "no detectable effect"}, {"measurement": "Akt activity", "setting": "Akt", "value": "inhibited Akt activity"}]}]}
